Source: patent publication US20060233873A1, “Dispersion of taste masked crystals or granules of active substances, chewable soft capsules filled with said dispersion, and process for preparing same” (priority 2003, published 2006)

Test: Solubility of the active in lipophilic vehicles at 25° C., HPLC method
Settings: oil or lipid
Description: In this example, lipophilic vehicles with different solubilizing powers for dextromethorphan HBr were tested.

For COc1ccc2c(c1)[C@]13CCCC[C@@H]1[C@H](C2)N(C)CC3 [dextromethorphan HBr], the solubility (in Dimethicone 100 silicone oil) was under 1 µg/mL, the solubility (in medium chain triglycerides Mygliol 812N) was 120 µg/mL and the solubility (in paraffin oil) was about 1 µg/mL. For the same molecule, the solubility (in soya oil) was about 6 µg/mL.
